Tested on: Lone star tick larvae (Amblyomma americanum)
Experiment: In Vitro Larval Immersion Microassay (LIM)
Details: read-out: % Efficacy (percent larval mortality)

## O=C(CNC(=O)c1sc(C2=NO[C@@](c3cc(Cl)c(F)c(Cl)c3)(C(F)(F)F)C2)c2c1CCC2)NCCF [Example 247, (S)-3-[5-(3,5-Dichloro-4-fluoro-phenyl)-5-trifluoromethyl-4,5-dihydro-isoxazol-3-yl]-5,6-dihydro-4H-cyclopenta[c]thiophene-1-carboxylic acid [(2-fluoro-ethylcarbamoyl)-methyl]-amide]
  mortality at 300 µM: ≥ 80%

## C#CCNC(=O)CNC(=O)c1sc(C2=NO[C@@](c3cc(Cl)c(F)c(Cl)c3)(C(F)(F)F)C2)c2c1CCC2 [Example 249, (S)-3-(5-(3,5-dichloro-4-fluorophenyl)-5-(trifluoromethyl)-4,5-dihydroisoxazol-3-yl)-N-(2-oxo-2-(prop-2-ynylamino)ethyl)-5,6-dihydro-4H-cyclopenta[c]thiophene-1-carboxamide]
  mortality at 300 µM: ≥ 80%

From patent US8648081B2 (Eli Lilly and Company, priority 2011, dated 2014)
